Assays:
[1] = test system: nuclear‐to‐cytoplasmic export of the RNP complex (NP); assay type: cell-based, 178 H5N1 HPAIV in MDCK cells
[2] = test system: H5N1 influenza virus strain 178; assay: organism not typed; assay type: cell-based, H5N1 influenza virus strain 178 in MDCK cells
purified N1‐type NA = purified N1‐type NA (Influenza A virus, UniProt P03468); assay type: biochemical
[3] = test system: H5N1‐HIV pseudoviruses (HA of A/Qinghai/59/2005(H5N1), NA of A/Thailand/Kan353/2004); assay type: cell-based, H5N1 pseudovirus in MDCK cells
[4] = test system: influenza virus type A, A/Chicken/GuangDong/178/2004 (H5N1, 178)
[5] = test system: RNP combinations of PB2, PB1, PA, and NP from influenza virus strain 178; assay type: cell-based, influenza virus strain 178 (H5N1), 293T cells
[6] = test system: H5N1 influenza virus strain 178; assay type: cell-based, H5N1 influenza virus strain 178 in MDCK cells; settings: 12–72 h

purified N1‐type NA, sequence (P03468 whole entry): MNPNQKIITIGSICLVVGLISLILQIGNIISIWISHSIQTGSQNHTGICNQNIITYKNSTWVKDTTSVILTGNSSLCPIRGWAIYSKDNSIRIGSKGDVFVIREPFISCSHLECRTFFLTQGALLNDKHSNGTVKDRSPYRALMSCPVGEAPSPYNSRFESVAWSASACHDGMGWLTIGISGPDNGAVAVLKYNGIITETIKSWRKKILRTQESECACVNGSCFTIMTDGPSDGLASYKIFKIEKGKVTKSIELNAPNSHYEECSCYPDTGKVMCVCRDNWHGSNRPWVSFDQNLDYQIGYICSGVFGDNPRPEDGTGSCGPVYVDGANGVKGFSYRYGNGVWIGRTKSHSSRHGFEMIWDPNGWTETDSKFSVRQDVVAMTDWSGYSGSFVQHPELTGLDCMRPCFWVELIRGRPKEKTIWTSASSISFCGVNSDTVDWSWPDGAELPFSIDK

SMILES | location of NP protein at 48 h p.i. (multi‐round replication) [1] | migration of the RNP complex from the nucleus to cytoplasm, early and middle stages of the replication cycle (0–6 h) [1] | time for which antiviral activity (block in vRNP nuclear export) was retained [1] | inhibitory activity when added at time intervals 5 min–1 h, 15 min–1 h, 30 min–1 h, 1–2 h, 2–4 h, or 4–8 h [2] | inhibitory effect against virus, time of addition [2] | inhibition at 52 µM ([2]; read-out: virus inhibited (HA titer)) [%] | inhibitory activity on the N1‐type neuraminidase (purified N1‐type NA) | prevention of binding and internalizing of H5N1 pseudovirions into MDCK cells [3] | SI (CC50/EC50) [4] | luciferase activities (RNP activity) compared with no treatment [5] | HA titer, cultured with DMEM‐containing compounds (protocol 4, 5, 7) [6] | CC50 (MDCK cells) | distribution of NP protein at 12, 24, and 48 h p.i. [1]
O[C@H]1[C@H]2c3cc4c(cc3CN3CCC(=C[C@@H]1O)[C@H]23)OCO4 [AA1, lycorine] | NP protein was exported to cytoplasm | affected migration of the RNP complex from the nucleus to cytoplasm | up to 24 h | not significant | observed after a single round of replication (12 h p.i.) | ~50 | did not exhibit significant inhibitory activity | neither AA1 nor AA3 could prevent | >45 | slightly higher luciferase activities | no HA titer was detected | 20·9 ± 0·07 μM | 
O=c1cc(N2CCOCC2)oc2c(-c3ccccc3)cccc12 [LY294002, reference compound] |  |  |  |  |  |  |  |  |  |  |  |  | the protein was still in the nucleus

— publication PMC4634243 (Influenza and Other Respiratory Viruses, 2012)
